Test results: the NIST ThermoML archive (doi:10.1016/j.jct.2016.01.021)
± gives the expanded uncertainty stated by the source.

Key:
[1] = xn = mol fraction of the nth substance listed; conditions: 100 kPa, Liquid, x1 = 1; for viscosity: Capillary tube (Ostwald / Ubbelohde) method; for mass density: Vibrating tube method
[2] = 100 kPa, Liquid; for viscosity: Capillary tube (Ostwald / Ubbelohde) method; for mass density: Vibrating tube method

Row | Structure (SMILES) | viscosity ([1]; 298.15 K) | mass density ([1]; 298.15 K) | viscosity ([1]; 303.15 K) | mass density ([1]; 303.15 K) | viscosity ([1]; 308.15 K) | mass density ([1]; 308.15 K) | viscosity ([1]; 313.15 K) | mass density ([1]; 313.15 K) | viscosity ([2]; 298.15 K) | mass density ([2]; 298.15 K) | viscosity ([2]; 303.15 K) | mass density ([2]; 303.15 K) | viscosity ([2]; 308.15 K) | mass density ([2]; 308.15 K) | viscosity ([2]; 313.15 K) | mass density ([2]; 313.15 K) | viscosity ([2]; 318.15 K) | mass density ([2]; 318.15 K) | viscosity ([2]; 323.15 K) | mass density ([2]; 323.15 K) | other results
1 | CCCCCCCCCCCCCCCC [hexadecane] + CCCCCCCCCCCC(=O)OCC | 3.085 ± 0.066 mPa·s | 769.92 ± 0.83 kg/m3 | 2.756 ± 0.059 mPa·s | 766.51 ± 0.83 kg/m3 | 2.478 ± 0.053 mPa·s | 763.06 ± 0.83 kg/m3 | 2.239 ± 0.048 mPa·s | 759.6 ± 0.83 kg/m3 |  |  |  |  |  |  |  |  |  |  |  |  | viscosity ([1]; 318.15 K): 2.034 ± 0.043 mPa·s; mass density ([1]; 318.15 K): 756.14 ± 0.83 kg/m3; viscosity ([1]; 323.15 K): 1.857 ± 0.04 mPa·s; mass density ([1]; 323.15 K): 752.68 ± 0.83 kg/m3
2 | CCCCCCCCCCCCCCCC [hexadecane] + CCCCCCCC(=O)OCC | 3.085 ± 0.066 mPa·s | 769.92 ± 0.83 kg/m3 | 2.756 ± 0.059 mPa·s | 766.51 ± 0.83 kg/m3 | 2.478 ± 0.053 mPa·s | 763.06 ± 0.83 kg/m3 | 2.239 ± 0.048 mPa·s | 759.6 ± 0.83 kg/m3 |  |  |  |  |  |  |  |  |  |  |  |  | viscosity ([1]; 318.15 K): 2.034 ± 0.043 mPa·s; mass density ([1]; 318.15 K): 756.14 ± 0.83 kg/m3; viscosity ([1]; 323.15 K): 1.857 ± 0.04 mPa·s; mass density ([1]; 323.15 K): 752.68 ± 0.83 kg/m3
3 | CCCCCCCCCCCCCCCC [hexadecane] + CCCCCCCCCC(=O)OCC | 3.085 ± 0.066 mPa·s | 769.92 ± 0.83 kg/m3 | 2.756 ± 0.059 mPa·s | 766.51 ± 0.83 kg/m3 | 2.478 ± 0.053 mPa·s | 763.06 ± 0.83 kg/m3 | 2.239 ± 0.048 mPa·s | 759.6 ± 0.83 kg/m3 |  |  |  |  |  |  |  |  |  |  |  |  | viscosity ([1]; 318.15 K): 2.034 ± 0.043 mPa·s; mass density ([1]; 318.15 K): 756.14 ± 0.83 kg/m3; viscosity ([1]; 323.15 K): 1.857 ± 0.04 mPa·s; mass density ([1]; 323.15 K): 752.68 ± 0.83 kg/m3
4 | CCCCCCCCCC(=O)OCC [ethyl decanoate] |  |  |  |  |  |  |  |  | 2.115 ± 0.045 mPa·s | 860.05 ± 0.83 kg/m3 | 1.919 ± 0.041 mPa·s | 855.99 ± 0.83 kg/m3 | 1.75 ± 0.037 mPa·s | 851.92 ± 0.83 kg/m3 | 1.603 ± 0.034 mPa·s | 847.85 ± 0.83 kg/m3 | 1.474 ± 0.031 mPa·s | 843.77 ± 0.83 kg/m3 | 1.362 ± 0.029 mPa·s | 839.69 ± 0.83 kg/m3 | 
5 | CCCCCCCCCCCC(=O)OCC [ethyl dodecanoate] |  |  |  |  |  |  |  |  | 3.015 ± 0.064 mPa·s | 858.19 ± 0.83 kg/m3 | 2.704 ± 0.057 mPa·s | 854.3 ± 0.83 kg/m3 | 2.439 ± 0.052 mPa·s | 850.4 ± 0.83 kg/m3 | 2.213 ± 0.047 mPa·s | 846.5 ± 0.83 kg/m3 | 2.016 ± 0.043 mPa·s | 842.6 ± 0.83 kg/m3 | 1.846 ± 0.039 mPa·s | 838.7 ± 0.83 kg/m3 | 
6 | CCCCCCCC(=O)OCC [ethyl octanoate] |  |  |  |  |  |  |  |  | 1.428 ± 0.03 mPa·s | 862.64 ± 0.83 kg/m3 | 1.313 ± 0.028 mPa·s | 858.34 ± 0.83 kg/m3 | 1.211 ± 0.026 mPa·s | 854.04 ± 0.83 kg/m3 | 1.121 ± 0.024 mPa·s | 849.72 ± 0.83 kg/m3 | 1.042 ± 0.022 mPa·s | 845.39 ± 0.83 kg/m3 | 0.971 ± 0.021 mPa·s | 841.06 ± 0.83 kg/m3 | 
7 | CCCCCCCCCCCCCCCC [hexadecane] |  |  |  |  |  |  |  |  | 3.085 ± 0.066 mPa·s | 769.92 ± 0.83 kg/m3 | 2.756 ± 0.059 mPa·s | 766.51 ± 0.83 kg/m3 | 2.478 ± 0.053 mPa·s | 763.06 ± 0.83 kg/m3 | 2.239 ± 0.048 mPa·s | 759.6 ± 0.83 kg/m3 | 2.034 ± 0.043 mPa·s | 756.14 ± 0.83 kg/m3 | 1.857 ± 0.04 mPa·s | 752.68 ± 0.83 kg/m3 | 
